Marks after values point to notes of the source that are not given here.
Legend:
[1] = Toxicokinetics in satellite animals of the 28-day oral gavage study (plasma, Day 1); format: in vivo, Sprague-Dawley rats; conditions: Sprague-Dawley, rat, Day 1, 30 mg/kg/day (NOAEL), for information only (ISR failed)
Experimental: J147 or vehicle was administered once daily to Sprague-Dawley rats via oral gavage for 28 consecutive days at a daily dose of 0, 30, 100 or 300 mg/kg. J174 was prepared in a vehicle formulation comprising 5% ethanol, 5% DMSO and 90% corn oil (v/v/v). Certified rodent diet and water was available ad libitum. Groups 1-4 contained 10 animals/sex/group. Groups 1 (control) and 4 (high dose) also included an additional 5 animals/sex/group for use as recovery animals. The recovery animals were maintained on study for a 14-day postdosing recovery period. Animals in Groups 1-4 were monitored for morbidity and mortality, clinical signs, detailed clinical observations, body weight, food consumption, ophthalmologic parameters, neurobehavioral assessment consisting of a Functional Observational Battery (FOB) and a motor activity test, hematology, coagulation, serum chemistry, and urinalysis parameters. Postmortem assessment included necropsy, measurement of selected organ weights, and microscopic evaluation of a standard set of tissues. Plasma samples for bioanalysis were collected on Days 1 and 28 from satellite toxicokinetic animals in Groups 5 through 8. Animals in these groups were euthanized following the last blood sampling and carcasses were discarded without examination. The study protocol is shown below in Table 1.
Additionally, analysis of Day 28 samples also occurred outside the known long-term stability (LTS) range of the validated bioanalytical method. Thus, the bioanalytical and toxicokinetic results for J147 are considered to be for information only. The bioanalytical and toxicokinetic analysis results should also be considered in light of the fact that Day 28 samples were analyzed outside of their LTS.
Given that there was clear evidence of toxicity at the mid and high dose groups, the Study Director believes that this study met the objective of examining the toxicity profile of J147. […] Under the conditions of this study, the no-observed-adverse-effect-level (NOAEL) for J147 was considered to be 30 mg/kg/day. […] Cmax and AUC0-last values should be considered in light of the caveats mentioned in the preceding paragraph. The lowest-observed-adverse-effect-level (LOAEL) is 100 mg/kg/day in both sexes based on test article-related decreases in body weight/body weight gain and food consumption, decreased activity, decreases in measures of red blood cell mass, decreased prothrombin time, decreased serum glucose and triglycerides, decreased thymus weights, and single cell necrosis of pancreatic acinar cells in males.

[2] = Oral gavage study up to 28 days at 0, 30, 100 and 300 mg/kg/day (body weight, food consumption); format: in vivo, beagle dogs
Experimental: (§1) J147 or vehicle was administered once daily to beagle dogs via oral gavage for up to 28 days at a daily dose of 0, 30, 100 and 300 mg/kg. J174 was prepared in a vehicle formulation comprising 5% ethanol, 5% DMSO and 90% corn oil (v/v/v). Block Lab Diet (Certified Canine Diet #5007, PMI Nutrition International, Inc.) was offered via limited feedings, except during designated periods. The animals were offered food 2 hours post-dose on each dosing day for 2 to 5 hours. Food was offered 2 to 5 hours/day during the acclimation period and during the recovery period. Tap water was available ad libitum via an automatic watering system. The study protocol is shown below in Table 9.

[3] = 28-Day Oral (Gavage) Toxicity Study in Beagle Dogs with a 14-Day Recovery Period at 0, 1, 10 and 30 mg/kg/day (body weight); format: in vivo
Experimental: as §1, with “J147” for “J147 or vehicle”, “1, 10” for “30, 100”, “30” for “300”, “postdose” for “post-dose”, “10.” for “9.”

[4] = dogs, all J147-treated groups (30, 100, 300 mg/kg/day), both sexes
[5] = female dogs, 30 mg/kg/day, Day 28
[6] = female dogs, 100 mg/kg/day, Day 28
[7] = female dogs, 300 mg/kg/day, Day 21 versus the Day 28 control value
[8] = male dogs, 30 mg/kg/day, Day 28
[9] = male dogs, 100 mg/kg/day, Day 28
[10] = male dogs, 300 mg/kg/day, Day 22 versus the Day 28 control value

SMILES: COc1cccc(/C=N/N(C(=O)C(F)(F)F)c2ccc(C)cc2C)c1 [J147]
- AUC(0-t) ([1]; female rats): 233 ng·h/mL
- Cmax ([1]; female rats): 50.8 ng/mL
- AUC(0-t) ([1]; male rats): 835 ng·h/mL
- Cmax ([1]; male rats): 146 ng/mL
- Body weight and body weight gain compared to the vehicle-treated control group [2, 4]: decreased
- Food consumption compared to the vehicle-treated control group [2, 4]: decreased
- Decrease of group mean body weight [2, 5]: 19%
- Decrease of group mean food consumption [2, 5]: 45%
- Decrease of group mean body weight [2, 6]: 21%
- Decrease of group mean food consumption [2, 6]: 48%
- Decrease of group mean body weight [2, 7]: 23%
- Decrease of group mean food consumption [2, 7]: 38%
- Decrease of group mean body weight [2, 8]: 23%
- Decrease of group mean food consumption [2, 8]: 31%
- Decrease of group mean body weight [2, 9]: 26%
- Decrease of group mean food consumption [2, 9]: 39%
- Decrease of group mean body weight [2, 10]: 18%
- Decrease of group mean food consumption [2, 10]: 48%
- Conclusion on body weight ([3]; dogs, 28-day oral gavage): induces weight loss and inhibits weight gain
- Body weight and food consumption finding ([3]; dogs, Groups 3 and 4, 10 mg/kg/day and 30 mg/kg/day): Body weight loss with lower food consumption
- Weight lost compared to pre-test levels (up to) ([3]; dogs, males and females, 10 mg/kg/day): up to −9%
- Body Weight, Mean ([3]; female dogs, 1 mg/kg/day, Day 3): 6.463 kg
- Body Weight, Mean ([3]; female dogs, 1 mg/kg/day, Day 7): 6.513 kg
- Body Weight, Mean ([3]; female dogs, 1 mg/kg/day, Day 10): 6.675 kg
- Body Weight, Mean ([3]; female dogs, 1 mg/kg/day, Day 14): 6.688 kg
- Body Weight, Mean ([3]; female dogs, 1 mg/kg/day, Day 17): 6.763 kg
- Body Weight, Mean ([3]; female dogs, 1 mg/kg/day, Day 21): 6.788 kg
- Body Weight, Mean ([3]; female dogs, 1 mg/kg/day, Day 24): 6.813 kg
- Body Weight, Mean ([3]; female dogs, 1 mg/kg/day, Day 28): 6.813 kg
- Body Weight, Mean ([3]; female dogs, 1 mg/kg/day, Day −1 (pre-dose)): 6.413 kg
- Animals that lost weight ([3]; female dogs, 10 mg/kg/day): 4 of 4
- Body Weight, Mean ([3]; female dogs, 10 mg/kg/day, Day 3): 6.363 kg
- Body Weight, Mean ([3]; female dogs, 10 mg/kg/day, Day 7): 6.250 kg
- Body Weight, Mean ([3]; female dogs, 10 mg/kg/day, Day 10): 6.275 kg
- Body Weight, Mean ([3]; female dogs, 10 mg/kg/day, Day 14): 6.150 kg
- Body Weight, Mean ([3]; female dogs, 10 mg/kg/day, Day 17): 6.163 kg
- Body Weight, Mean ([3]; female dogs, 10 mg/kg/day, Day 21): 6.063 kg
- Body Weight, Mean ([3]; female dogs, 10 mg/kg/day, Day 24): 6.038 kg
- Body Weight, Mean ([3]; female dogs, 10 mg/kg/day, Day 28): 5.988 kg
- Body Weight, Mean ([3]; female dogs, 10 mg/kg/day, Day −1 (pre-dose)): 6.325 kg
- Animals that lost weight ([3]; female dogs, 30 mg/kg/day): 6 of 6
- Weight lost, of pretest levels (up to) ([3]; female dogs, 30 mg/kg/day): ≤ −17%
- Body Weight, Mean ([3]; female dogs, 30 mg/kg/day, Day 3): 6.308 kg
- Body Weight, Mean ([3]; female dogs, 30 mg/kg/day, Day 7): 6.242 kg
- Body Weight, Mean ([3]; female dogs, 30 mg/kg/day, Day 10): 6.192 kg
- Body Weight, Mean ([3]; female dogs, 30 mg/kg/day, Day 14): 6.033 kg
- Body Weight, Mean ([3]; female dogs, 30 mg/kg/day, Day 17): 5.858^a kg
- Body Weight, Mean ([3]; female dogs, 30 mg/kg/day, Day 21): 5.700^b kg
- Body Weight, Mean ([3]; female dogs, 30 mg/kg/day, Day 24): 5.575^b kg
- Body Weight, Mean [3, 5]: 5.525^b kg
- Body Weight, Mean ([3]; female dogs, 30 mg/kg/day, Day −1 (pre-dose)): 6.258 kg
- Body Weight, Mean ([3]; male dogs, 1 mg/kg/day, Day 3): 7.850 kg
- Body Weight, Mean ([3]; male dogs, 1 mg/kg/day, Day 7): 7.838 kg
- Body Weight, Mean ([3]; male dogs, 1 mg/kg/day, Day 10): 8.000 kg
- Body Weight, Mean ([3]; male dogs, 1 mg/kg/day, Day 14): 8.000 kg
- Body Weight, Mean ([3]; male dogs, 1 mg/kg/day, Day 17): 8.075 kg
- Body Weight, Mean ([3]; male dogs, 1 mg/kg/day, Day 21): 8.200 kg
- Body Weight, Mean ([3]; male dogs, 1 mg/kg/day, Day 24): 8.325 kg
- Body Weight, Mean ([3]; male dogs, 1 mg/kg/day, Day 28): 8.250 kg
- Body Weight, Mean ([3]; male dogs, 1 mg/kg/day, Day −1 (pre-dose)): 7.813 kg
- Animals that lost weight ([3]; male dogs, 10 mg/kg/day): 3 of 4
- Body Weight, Mean ([3]; male dogs, 10 mg/kg/day, Day 3): 7.588 kg
- Body Weight, Mean ([3]; male dogs, 10 mg/kg/day, Day 7): 7.675 kg
- Body Weight, Mean ([3]; male dogs, 10 mg/kg/day, Day 10): 7.763 kg
- Body Weight, Mean ([3]; male dogs, 10 mg/kg/day, Day 14): 7.625 kg
- Body Weight, Mean ([3]; male dogs, 10 mg/kg/day, Day 17): 7.563 kg
- Body Weight, Mean ([3]; male dogs, 10 mg/kg/day, Day 21): 7.663 kg
- Body Weight, Mean ([3]; male dogs, 10 mg/kg/day, Day 24): 7.638 kg
- Body Weight, Mean ([3]; male dogs, 10 mg/kg/day, Day 28): 7.500 kg
- Body Weight, Mean ([3]; male dogs, 10 mg/kg/day, Day −1 (pre-dose)): 7.563 kg
- Animals that lost weight ([3]; male dogs, 30 mg/kg/day): 5 of 6
- Weight lost, of pretest levels (up to) ([3]; male dogs, 30 mg/kg/day): up to −12%
- Body Weight, Mean ([3]; male dogs, 30 mg/kg/day, Day 3): 7.900 kg
- Body Weight, Mean ([3]; male dogs, 30 mg/kg/day, Day 7): 7.933 kg
- Body Weight, Mean ([3]; male dogs, 30 mg/kg/day, Day 10): 8.008 kg
- Body Weight, Mean ([3]; male dogs, 30 mg/kg/day, Day 14): 7.967 kg
- Body Weight, Mean ([3]; male dogs, 30 mg/kg/day, Day 17): 7.883 kg
- Body Weight, Mean ([3]; male dogs, 30 mg/kg/day, Day 21): 7.800 kg
- Body Weight, Mean ([3]; male dogs, 30 mg/kg/day, Day 24): 7.825 kg
- Body Weight, Mean [3, 8]: 7.600 kg
- Body Weight, Mean ([3]; male dogs, 30 mg/kg/day, Day −1 (pre-dose)): 7.908 kg

From patent US12357596B2, “Compounds for prevention and treatment of obesity and related disorders” (ABREXA PHARMACEUTICALS, INC., priority 2019, dated 2025)
